Measurements: PubChem BioAssay AID588599 (Sanford-Burnham Center for Chemical Genomics, 2011)

Target: Caspase-3 (Homo sapiens) (UniProt P42574)
Assay: caspase-3 inhibitors as off-family protease, SAR follow-up, selectivity assay for SENP protease inhibitor project, biochemical, luminescence, set 2 (AID 588599)
Conditions: recombinant caspase-3, Z-DEVD-aminoluciferin luminescence, 60 min

Caspase-3 (Homo sapiens), sequence (P42574 28-227 limits assumed): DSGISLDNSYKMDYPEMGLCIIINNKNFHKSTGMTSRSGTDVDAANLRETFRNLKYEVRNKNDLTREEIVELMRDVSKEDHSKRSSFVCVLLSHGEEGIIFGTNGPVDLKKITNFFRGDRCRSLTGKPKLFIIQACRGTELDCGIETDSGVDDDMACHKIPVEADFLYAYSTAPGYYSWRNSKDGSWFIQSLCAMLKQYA

Row | SMILES | IC50
1 | O=C(Nc1nc2ccccc2s1)c1cc2ccccc2s1 | 0.515 µM
2 | Cc1cccc(-c2noc(/C=C/c3ccccc3)n2)c1 | 10.6 µM
3 | CCCCc1ccc2nc(NC(=O)c3sccc3Cl)sc2c1 | 1.11 µM
4 | Fc1ccc(/C=C/c2noc(-c3ccccc3I)n2)cc1 | 23.9 µM
